Legend:
[1] = test system: Staphylococcus aureus FDA 209P; assay: Antimicrobial test in vitro (MIC, agar plate dilution method); assay type: cell-based; set-up: unit not given here; settings: S. aureus FDA 209P
Experimental: (§1) The antimicrobial activities of the following test compounds were tested by measuring the minimum inhibitory concentration (MIC) by an agar plate dilution method [cf. Chemotherapy, 22, 1126-1128 (1974)]. The test microorganisms were used in a concentration of 1×10^8 cells/ml (optical dencity (O.D.) at 660 m: 0.07-0.16) and 1×10^6 cells/ml (dilution: 100 folds).
A: Staphylococcus aureus FDA 209P

[2] = test system: Streptococcus pyogenes II D S-23; assay: as above; assay type: cell-based; set-up: unit not given here; settings: S. pyogenes II D S-23
Experimental: as §1
B: Streptococcus pyogenes II D S-23

[3] = test system: Escherichia coli NIHJ JC-2; assay: as above; assay type: cell-based; set-up: unit not given here; settings: E. coli NIHJ JC-2
Experimental: as §1
C: Escherichia coli NIHJ JC-2

Escherichia coli No. 29 = assay: as above; assay type: cell-based; set-up: unit not given here; settings: E. coli No. 29
Experimental: as §1
D: Escherichia coli No. 29

[4] = test system: Klebsiella pneumoniae NCTC 9632; assay: as above; assay type: cell-based; set-up: unit not given here; settings: K. pneumoniae NCTC 9632
Experimental: as §1
E: Klebsiella pneumoniae NCTC 9632

Proteus mirabilis 1287 = assay: as above; assay type: cell-based; set-up: unit not given here; settings: P. mirabilis 1287
Experimental: as §1
F: Proteus mirabilis 1287

[5] = test system: Proteus morganii II D Kono; assay: as above; assay type: cell-based; set-up: unit not given here; settings: P. morganii II D Kono
Experimental: as §1
G: Proteus morganii II D Kono

[6] = test system: Serratia marcescens IFO 12648; assay: as above; assay type: cell-based; set-up: unit not given here; settings: S. marcescens IFO 12648
Experimental: as §1
H: Serratia marcescens IFO 12648

[7] = test system: Acinetobacter calcoaceticus AC-54; assay: as above; assay type: cell-based; set-up: unit not given here; settings: A. calcoaceticus AC-54
Experimental: as §1
I: Acinetobacter calcoaceticus AC-54

[8] = test system: Pseudomonas aeruginosa ATCC 10145; assay: as above; assay type: cell-based; set-up: unit not given here; settings: P. aeruginosa ATCC 10145
Experimental: as §1
J: Pseudomonas aeruginosa ATCC 10145

[9] = test system: Pseudomonas aeruginosa E-2; assay: as above; assay type: cell-based; set-up: unit not given here; settings: P. aeruginosa E-2
Experimental: as §1
K: Pseudomonas aeruginosa E-2

[10] = Measurement of concentration of compounds in urine; assay type: in vivo; settings: male rats, oral 25 mg/kg, 0-24 hours
Experimental: (§2) The same Test Compound 1 as used in the above Test 1 was orally administered in a dose of 25 mg/kg to three male rats (weighing 190-242 g), and blood and urine were collected from the animals at intervals. The concentration of the test compound in the collected urine and blood was measured by a thin layer plate cup (6 ml medium/.phi.90 mm shall) method wherein Bacillus subtilis ATCC 6633 was used as a test microorganism and a sensitive medium (manufactured by Eiken Kagaku K.K., Japan) was used as a medium. The results are shown in Table 2 (the concentration in urine) and in Table 3 (the concentration in blood), respectively.

[11] = Measurement of concentration of compounds in blood; assay type: in vivo; settings: rat, male rats, oral 25 mg/kg
Experimental: as §2

[12] = test system: Pseudomonas aeruginosa E-2; assay: Therapeutic effects of compounds in urinary infectious diseases in vivo; set-up: species or system JCL:S.D. female rats; settings: E2, 96 h, female S.D. rats, bladder infection, oral at 6, 24 and 48 hours, urine and kidney colonies after 4 days, Probit method, read-out: 50% effective dose (ED50)
Experimental: Pseudomonas aeruginosa E-2 was cultured in a nutrient medium at 37° C. for 18 hours and the culture broth thus obtained was diluted with the same medium to prepare a solution of the microorganism (cell concentration: 10^7 cells/ml). To the solution were dipped a UV-sterilized disc [glyceryl monomyristate (manufactured by Nikko Chemicals, Japan) and sodium cetylsulfurate (manufactured by Nikko Chemicals, Japan) in a weight ratio of 9:1; diameter: 2.0 mm, length: 3.0 mm] under ice-cooling for 1.5 hour to give a microorganism-containing disc for inoculation.
The above-prepared disc was surgically inserted into the bladder of JCL:S.D. female rats (one group: four rats) anaesthetized with secobarbital sodium. After the animals have been infected with the microorganism, i.e. 6 hours after the insertion of the disc, 1% oxamide-containing feed and water were administered to the animals. The oxamide-containing feed was changed to a normal feed after 24 hours. Test compounds 1, 7 and 8 as used in Test 1 (in the form of a 0.5% CMC suspension) were each orally administered to the animals in a dose of 16 mg/kg, 8.0 mg/kg, 4.0 mg/kg, 2.0 mg/kg, and 1.0 mg/kg at 6, 24 and 48 hours after the insertion of disc. After 4 days from the infection, urine was collected and further the kidney was taken out from the animals, and then the presence of microorganism was checked as to the collected urine and kidney. That is, 0.1 ml of the urine was applied onto an agar plate medium and cultured at 37° C. for 18 hours, and the number of colonies was counted. Besides, the taken out kidney was divided into two, and the plain section was contacted to an agar plate medium, and the medium was cultured likewise, and the number of colonies was counted, likewise. When the number of colonies was less than 10, it was evaluated as "effective," and when the number of colonies was more than 10, it was evaluated as "ineffective". […]

## CC1Cc2c(N3CCN(C)CC3)c(F)c(N)c3c(=O)c(C(=O)O)cn1c23 (stereo not shown) [Compound 1, 8-fluoro-2-methyl-9-(4-methyl-1-piperazinyl)-7-amino-6-oxo-1,2-dihydro-pyrrolo[3,2,1-ij]quinoline-5-carboxylic acid]
[1]; 1×10^6 cells/ml
  minimum inhibitory concentration (MIC): 0.2
[1]; 1×10^8 cells/ml
  minimum inhibitory concentration (MIC): 0.39
[2]; 1×10^6 cells/ml
  minimum inhibitory concentration (MIC): 3.13
[2]; 1×10^8 cells/ml
  minimum inhibitory concentration (MIC): 3.13
[3]; 1×10^6 cells/ml
  minimum inhibitory concentration (MIC): 0.05
[3]; 1×10^8 cells/ml
  minimum inhibitory concentration (MIC): 0.1
Escherichia coli No. 29; 1×10^6 cells/ml
  minimum inhibitory concentration (MIC): 0.1
Escherichia coli No. 29; 1×10^8 cells/ml
  minimum inhibitory concentration (MIC): 0.1
[4]; 1×10^6 cells/ml
  minimum inhibitory concentration (MIC): 0.2
[4]; 1×10^8 cells/ml
  minimum inhibitory concentration (MIC): 0.2
Proteus mirabilis 1287; 1×10^6 cells/ml
  minimum inhibitory concentration (MIC): 0.39
Proteus mirabilis 1287; 1×10^8 cells/ml
  minimum inhibitory concentration (MIC): 0.78
[5]; 1×10^6 cells/ml
  minimum inhibitory concentration (MIC): 0.2
[5]; 1×10^8 cells/ml
  minimum inhibitory concentration (MIC): 0.39
[6]; 1×10^6 cells/ml
  minimum inhibitory concentration (MIC): 0.2
[6]; 1×10^8 cells/ml
  minimum inhibitory concentration (MIC): 0.2
[7]; 1×10^6 cells/ml
  minimum inhibitory concentration (MIC): 0.39
[7]; 1×10^8 cells/ml
  minimum inhibitory concentration (MIC): 0.39
[8]; 1×10^6 cells/ml
  minimum inhibitory concentration (MIC): 0.78
[8]; 1×10^8 cells/ml
  minimum inhibitory concentration (MIC): 1.56
[9]; 1×10^6 cells/ml
  minimum inhibitory concentration (MIC): 0.78
[9]; 1×10^8 cells/ml
  minimum inhibitory concentration (MIC): 1.56
[10]
  Recovered amount in urine: 1471.6 µg
[10]; rat, urine, read-out: Recovery rate in urine
  dose excreted at 24 h: 27.2%
[11]; 0.5 hour after the administration
  concentration at 0.5 h: 3190 ng/mL
[11]; 1 hour after the administration
  concentration at 1 h: 2490 ng/mL
[11]; 2 hours after the administration
  concentration at 2 h: 1920 ng/mL
[11]; 4 hours after the administration
  concentration at 4 h: 900 ng/mL
[11]; 6 hours after the administration
  concentration at 6 h: 600 ng/mL
[11]; 8 hours after the administration
  concentration at 8 h: 310 ng/mL
[12]
  ED50: 1.53 mg/kg

Reference: US4594347A, “Pyrrolo [3,2,1-ij]-quinoline carboxylic acid compound” (Otsuka Pharmaceutical Co. Limited, priority 1983, dated 1986)
